Data taken from patent US20060148714A1, “Therapeutic peptide-based constructs” (priority 1999, published 2006).
Values after ≈ are worked out from the molar mass of the structure shown. Marks after values point to notes of the source that are not given here. Where a SMILES comes first, the peptide text is derived from it. Where no end group is shown, it is not given here. [ ]: non-standard residue; d: D form. The star is where a group is joined. Benzoyl(4-Ph) = O=C(c1ccc(-c2ccccc2)cc1)*; Benzoyl(2-Ph) = O=C(c1ccccc1-c1ccccc1)*; d1Nal = N[C@H](Cc1cccc2ccccc12)C(=O)O; Aib = CC(C)(N)C(=O)O

Experiments:
[1] = system: Factor Xa neutralization by ATIII/heparin complexes; experiment: Chromostrate heparin anti-Factor Xa assay (heparin neutralization); format: biochemical; settings: absorbance at 405 nm
Procedure: A Chromostrate™ assay was used to determine the effect of peptide-based constructs, including derivatized constructs, and the effect protamine sulfate (as a positive control) on Factor Xa neutralization by ATIII/heparin complexes. The assay was conducted using a Chromostrate™ heparin anti-Factor Xa assay kit (Organon Teknika Corp., Durham, N.C.). Heparin concentration was varied so that a heparin standard curve was generated. The assay measured the potentiating effect of heparin on anti-Xa activity in vitro. Solution containing heparin is incubated in the presence of ATIII with an excess of Factor Xa, forming an ATIII-Heparin-Xa complex. The remaining Xa catalyzes the release of p-nitroaniline (pNA) from the chromogenic substrate. The release of p-nitroaniline is measured at 405 nm. The absorbance obtained in inversely porportional to the concentration of heparin in the sample.
Reagents for the assay are prepared as follows. Heparin, peptide-based constructs and protamine sulfate stocks are made in saline. Stock solutions are approximately 1 mg/mL=1 μg/μL. Factor Xa reagent and substrate reagent are reconstituted with 2.0 mL purified water. Antithrombin III (ATIII) reagent is reconstituted with 1.0 mL purified water. The assay is performed in 96 well microtiter plates. Assay components are added to the microtiter wells as follows: 12.5 μl of heparin (from 0 to 10 U/mL), 25 μl of construct or protamine sulfate, 12.5 μL of ATIII (0.5 PEU/mL), 25 μL of bovine Factor Xa (14 nKat/mL), 25 μL substrate (3 μmoles/mL). The reaction is allowed to proceed for 20 minutes and then 25 μL of 0.1 M acetic acid is added. The color reaction is quantitated on a microplate reader at 405 nm. Constructs that neutralize heparin show an increase in the absorbance at 405 nm. Protamine is used as a positive control and its activity is designated as 100%. The percent (%) heparin neutralization for each peptide construct is calculated relative to the neutralization by protamine (100%), and shown in Table IV.

[2] = system: E. coli (J5 and 0111 B4), Staphylococcus aureus and Candida albicans; experiment: Broth and/or radial diffusion antimicrobial assays; format: cell-based
Source text: Assays useful for testing a variety of biological activities of BPI protein products, including BPI-derived peptides, are described in co-owned U.S. Pat. Nos. 5,733,872; 5,763,567; 5,652,332; and 5,856,438 and corresponding PCT Publication Nos. WO 94/20532 (PCT/US94/02465) and WO 95/19372 (PCT/US94/10427) and U.S. Pat. No. 5,858,974 and corresponding PCT Publications Nos. WO 96/08509 (PCT/US95/09262) and WO 97/04008 (PCT/US96/03845), incorporated herein by reference. These activities include antimicrobial (including antibacterial and antifungal), LPS binding, LPS neutralization and additional assays of heparin binding as well as heparin neutralization.

[3] = system: LPS; experiment: RAW cell assay of LPS neutralization; format: cell-based
[4] = system: human umbilical vein endothelial cells (HUVEC); format: cell-based; settings: 72 h
Procedure: Briefly, human umbilical vein endothelial cells (HUVEC) were cultured in EGM-2 medium (Clonetics Corp., San Diego, Calif.), harvested and plated onto a 96-well culture plate. After 24 hours of quiescence, the cells were co-cultured with various peptide-based constricts in the presence of growth factors for 72 hours to test their activity. Cell proliferation was quantitated by tritiated thymidine incorporation into DNA and was expressed in counts per minute (cpm).
Details of the experimental procedures were as follows: HUVEC cells were cultured in EGM-2 media from Clonetics Corp., a subsidiary of BioWhittaker, Inc., San Diego, Calif. [EGM-2 is Endothelial Cell Basal Medium-2 (EMB-2) supplemented with growth factors (hFGF-B, VEGF, IGF-1, hEGF) ascorbic acid, heparin, GA-1000 and 2% FBS), in T75 flasks until confluent (˜4-7 days). Cells were harvested by trypsinizing the cells using 0.025% trypsin/EDTA for 5 minutes. To stop the reaction, 2-5% FBS was added. The cells were centrifuged and washed 3 times using Hank's Balanced Salt Solution (HBSS) or Dulbecco's Phosphate Buffered Saline D-PBS. The pellet was then resuspended in EBM-2 supplemented with 0.1% FBS and GA-1000 was used. The cells were counted and a cell suspension was prepared at 2×10^5/mL in EBM-2 with 0.1% FBS; cells were dispensed into a 96-well flat bottomed culture plate at 0.1 mL/well (total: ˜20,000 cells/well in 0.1% FBS-EBM-2). Incubation continued at 37° C. in 5% CO2 for 20-24 hours. The next day peptide-based constructs were prepared for testing in a 96 well plate. The supernatant was aspirated from the cell-well, replaced with EBM-2 or the testing reagent at 20 μL/well. Then, 180 μL/well of 1.12% FBS-GFS were added to make a final concentration of 1% FBS-GFS in EBM-2. This aspiration and addition was done well-by-well. ^3H-thymidine (100 μCi/mL) was added at 10 μL/well (1 μCi/well, final). Incubation continued at 37° C., 5% CO2 for 72 hours. To harvest the plate, the supernatant was aspirated off from the cell-well and then 75 μL-100 μL/well of 0.025% trypsin-EDTA was added. After incubation for 8-10 minutes at room temperature in the hood, the cells were checked and 100 μL/well of 2-5% FBS-PBS was added to stop the reaction. The plate was then harvested, dried and counted using an Inotech cell harvester (Inotech Biosystems, INB-384, Sample Processing and Filter Counting System, Lansing, Mich.).

Compound | Assay A: percent heparin neutralization relative to protamine (100%) [1] | Assay B: percent heparin neutralization relative to protamine (100%) [1] | antimicrobial activity [2] | LPS neutralization activity [3] | IC50 [4]
1-naphthylacetyl-k-l-f-r-(naph-a)-q-a-k ({1‑naphthylacetyl}-[dK][dL][dF][dR][dNal][dQ][dA][dK]; not fully specified; printed as 1-naphthylacetyl-k-l-f-r-(naph-a)-q-a-k) [XMP.671] | 32% | 15% |  |  | 
4-biphenylcarbonyl-k-l-f-k-(biphenyl-a)-q-a-k [XMP.769] | 64% | 46% |  |  | 
4-biphenylcarbonyl-k-l-f-k-(naph-a)-q-a-k ({Benzoyl(4-Ph)}-[dK][dL][dF][dK][dNal][dQ][dA][dK]; not fully specified; printed as 4-biphenylcarbonyl-k-l-f-k-(naph-a)-q-a-k) [XMP.767] | 63%* | 58% | highest activities |  | 
4-biphenylcarbonyl-k-l-f-r-(biphenyl-a)-q-a-k [XMP.768] | 34% | 10% |  |  | 
4-biphenylcarbonyl-k-l-f-r-(naph-a)-q-a-k ({Benzoyl(4-Ph)}-[dK][dL][dF][dR][dNal][dQ][dA][dK]; not fully specified; printed as 4-biphenylcarbonyl-k-l-f-r-(naph-a)-q-a-k) [XMP.664] | 50% | 16% | highest activities |  | 
CC[C@@H](C)[C@@H](NC(=O)[C@@H](CO)NC(=O)CNC(=O)[C@@H](CCCCN)NC(=O)[C@@H](Cc1cccc2ccccc12)NC(=O)[C@@H](CCCCN)NC(=O)[C@@H](C)NC(=O)[C@@H](CCC(N)=O)NC(=O)[C@@H](Cc1cccc2ccccc12)NC(=O)[C@@H](CCCNC(=N)N)NC(=O)[C@@H](Cc1ccccc1)NC(=O)[C@@H](CC(C)C)NC(=O)[C@H](N)CCCCN)C(N)=O [XMP.625, k-l-f-r-(naph-a)-q-a-k-(naph-a)-k-g-s-i] (H-[dK][dL][dF][dR][d1Nal][dQ][dA][dK][d1Nal][dK]G[dS][dI]-NH2) | 79% | 125% |  | showed activity | 
CC[C@@H](C)[C@@H](NC(=O)[C@@H](CCCCN)NC(=O)[C@H](NC(=O)CNC(=O)[C@@H](CCCCN)NC(=O)[C@@H](Cc1cccc2ccccc12)NC(=O)[C@@H](CCCCN)NC(=O)[C@@H](C)NC(=O)[C@@H](CCC(N)=O)NC(=O)[C@@H](Cc1cccc2ccccc12)NC(=O)[C@@H](CCCNC(=N)N)NC(=O)[C@@H](Cc1ccccc1)NC(=O)[C@@H](CC(C)C)NC(=O)[C@H](N)CCCCN)[C@H](C)CC)C(N)=O [XMP.656, k-l-f-r-(naph-a)-q-a-k-(naph-a)-k-g-i-k-i] (H-[dK][dL][dF][dR][d1Nal][dQ][dA][dK][d1Nal][dK]G[dI][dK][dI]-NH2; N-terminus assumed) | 74% | 65% | highest antimicrobial activities |  | 2.6 ± 0.8 µg/mL (≈ 1.43 µM)
CC(C)C[C@@H](NC(=O)[C@@H](CCCCN)NC(=O)c1ccccc1-c1ccccc1)C(=O)N[C@H](Cc1ccccc1)C(=O)N[C@H](CCCNC(=N)N)C(=O)N[C@H](Cc1cccc2ccccc12)C(=O)N[C@H](CCC(N)=O)C(=O)N[C@H](C)C(=O)N[C@H](CCCCN)C(N)=O [XMP.661, 2-biphenylcarbonyl-k-l-f-r-(naph-a)-q-a-k] ({Benzoyl(2-Ph)}-[dK][dL][dF][dR][d1Nal][dQ][dA][dK]-NH2) | 30% | 9% |  |  | 
k-(aminoisobutyric acid)-f-r-(naph-a)-q-a-k-(naph-a) ([dK][Aib][dF][dR]A[dQ][dA][dK]A; not fully specified (residues 5, 9)) [XMP.778] | 54% | 49% | highest antimicrobial activities |  | 
k-a-f-k-(naph-a)-q-a-k-(naph-a)-k-G ([dK][dA][dF][dK][dNal][dQ][dA][dK][dNal][dK]G; not fully specified; printed as k-a-f-k-(naph-a)-q-a-k-(naph-a)-k-G) [XMP.764] | 75% | 60% | highest antimicrobial activities |  | 
k-a-f-r-(naph-a)-q-a-k-(naph-a) ([dK][dA][dF][dR][dNal][dQ][dA][dK][dNal]; not fully specified; printed as k-a-f-r-(naph-a)-q-a-k-(naph-a)) [XMP.760] | 53% | 44% | highest antimicrobial activities |  | 
k-l-f-k-(biphenyl-a)-q-a-k-(biphenyl-a)-k-G [XMP.728] | 106% | 87% |  |  | 
k-l-f-k-(naph-a)-q-a-k-(naph-a) ([dK][dL][dF][dK][dNal][dQ][dA][dK][dNal]; not fully specified; printed as k-l-f-k-(naph-a)-q-a-k-(naph-a)) [XMP.776] | 74% | 75% | highest antimicrobial activities |  | 
k-l-f-r-(biphenyl-A)-q-a-k [XMP.685] | 3.4% | 0.2% |  |  | 
k-l-f-r-(biphenyl-a)-q-a-k [XMP.725] | 3.8% | 1.0% |  |  | 
